Test results reported in publication PMC6084004 (2017).

melting point	SMILES
181 to 183 °C	CSc1ncnc2c1c1cc(Cl)ccc1n2[C@@H]1O[C@H](CO)[C@@H](O)[C@@H]1O
233 to 235 °C	Cc1ncnc2c1c1cc(Cl)ccc1n2[C@@H]1O[C@H](CO)[C@@H](O)[C@@H]1O
241 to 243 °C	OC[C@H]1O[C@@H](n2c3ccc(Cl)cc3c3c(-c4ccco4)ncnc32)[C@@H](O)[C@@H]1O
192 to 194 °C	OC[C@H]1O[C@@H](n2c3ccc(Cl)cc3c3c(-c4cccs4)ncnc32)[C@@H](O)[C@@H]1O
275 to 278 °C	Nc1ncnc2c1c1cc(Cl)ccc1n2[C@@H]1O[C@H](CO)[C@@H](O)[C@H]1F
184 to 186 °C	OC[C@H]1O[C@@H](n2c3ccc(Cl)cc3c3c(-c4ccoc4)ncnc32)[C@H](F)[C@@H]1O
192 to 193 °C	OC[C@H]1O[C@@H](n2c3ccc(Cl)cc3c3c(-c4ccccc4)ncnc32)[C@H](F)[C@@H]1O
248 to 250 °C	COc1ncnc2c1c1cc(Cl)ccc1n2[C@@H]1O[C@H](CO)[C@@H](O)[C@@H]1F
208 to 214 °C	OC[C@H]1O[C@@H](n2c3ccc(Cl)cc3c3c(-c4ccoc4)ncnc32)[C@@H](F)[C@@H]1O
214 to 216 °C	OC[C@H]1O[C@@H](n2c3ccc(Cl)cc3c3c(-c4ccccc4)ncnc32)[C@@H](F)[C@@H]1O

The next lines start with the compound.

SMILES	melting point
Nc1ncnc2c1c1cc(Cl)ccc1n2[C@@H]1O[C@H](CO)[C@@H](O)[C@@H]1O	298 to 301 °C
COc1ncnc2c1c1cc(Cl)ccc1n2[C@@H]1O[C@H](CO)[C@@H](O)[C@@H]1O	238 to 241 °C
OC[C@H]1O[C@@H](n2c3ccc(Cl)cc3c3c(-c4ccoc4)ncnc32)[C@@H](O)[C@@H]1O	186 to 188 °C
OC[C@H]1O[C@@H](n2c3ccc(Cl)cc3c3c(-c4ccsc4)ncnc32)[C@@H](O)[C@@H]1O	207 to 209 °C
OC[C@H]1O[C@@H](n2c3ccc(Cl)cc3c3c(-c4ccccc4)ncnc32)[C@@H](O)[C@@H]1O	183 to 185 °C
CSc1ncnc2c1c1cc(Cl)ccc1n2[C@@H]1O[C@H](CO)[C@@H](O)[C@H]1F	205 to 209 °C
Cc1ncnc2c1c1cc(Cl)ccc1n2[C@@H]1O[C@H](CO)[C@@H](O)[C@H]1F	247 to 251 °C
OC[C@H]1O[C@@H](n2c3ccc(Cl)cc3c3c(-c4ccco4)ncnc32)[C@H](F)[C@@H]1O	203 to 206 °C
OC[C@H]1O[C@@H](n2c3ccc(Cl)cc3c3c(-c4cccs4)ncnc32)[C@H](F)[C@@H]1O	206 to 211 °C
OC[C@H]1O[C@@H](n2c3ccc(Cl)cc3c3c(-c4ccsc4)ncnc32)[C@H](F)[C@@H]1O	221 to 222 °C
Nc1ncnc2c1c1cc(Cl)ccc1n2[C@@H]1O[C@H](CO)[C@@H](O)[C@@H]1F	267 to 272 °C
CSc1ncnc2c1c1cc(Cl)ccc1n2[C@@H]1O[C@H](CO)[C@@H](O)[C@@H]1F	230 to 231 °C
Cc1ncnc2c1c1cc(Cl)ccc1n2[C@@H]1O[C@H](CO)[C@@H](O)[C@@H]1F	211 to 216 °C
OC[C@H]1O[C@@H](n2c3ccc(Cl)cc3c3c(-c4ccco4)ncnc32)[C@@H](F)[C@@H]1O	75 to 81 °C
OC[C@H]1O[C@@H](n2c3ccc(Cl)cc3c3c(-c4cccs4)ncnc32)[C@@H](F)[C@@H]1O	225 to 227 °C
OC[C@H]1O[C@@H](n2c3ccc(Cl)cc3c3c(-c4ccsc4)ncnc32)[C@@H](F)[C@@H]1O	240 to 241 °C
